Reference: patent US20100311714A1, “1H-IMIDAZO[4,5-c]QUINOLINONE COMPOUNDS” (priority 2009, published 2010)
Where two headings read alike, the source gives them in different places.

Key:
[1] = Parallel Artificial Membrane Permeability Assay (PAMPA) at pH 6.8; format: physicochemical
Method in brief: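 Reported as log Pe, membrane permeability was determined by parallel artificial membrane assay at pH 6.8 per Wohnsland–Faller.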

PI3K beta = biological target: T1, PI3K beta (Homo sapiens, UniProt P42338); experiment: PI3K beta kinase assay (Kinase-Glo luminescence); format: biochemical
T1 construct: for the full-length p110-b subunit are generated and fused by overlapping PCR; His tag (C); made in house; host or cells: baculovirus BV949; Tn5 (Trichoplusia ni) or TiniPro insect cells
Method in brief: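 Kinase-Glo luminescence read out ATP left after a 60-min room-temperature reaction, started with ATP (1 μM final) on 25 nM His-tagged p85 iSH2–p110β (BV949) plus 10 μg/mL PI substrate in pH 7.5 Tris buffer. Percent inhibition at eight concentrations was fitted to a four-parameter logistic model for IC50.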

mTOR = biological target: T2, mTOR (Homo sapiens, UniProt P42345); experiment: Biochemical assay for m-TOR by TR-FRET
T2 construct: purchased Invitrogen Corporation (Carlsbad/Calif., USA) PV4753
Method in brief: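 mTOR (0.5 nM) phosphorylates GFP-4EBP1 (400 nM) with 8 μM ATP at rt in 50 mM HEPES pH 7.5, 10 mM MnCl2, 50 mM NaCl, 1 mM EGTA, 1 mM DTT; compounds 0.003–10 μM final. EDTA stop with Tb-anti-p4EBP1[pT46] antibody (0.5 nM); TR-FRET read after 15 min against no-enzyme and vehicle controls.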

T2 sequence (P42345 1360-2549 limits assumed): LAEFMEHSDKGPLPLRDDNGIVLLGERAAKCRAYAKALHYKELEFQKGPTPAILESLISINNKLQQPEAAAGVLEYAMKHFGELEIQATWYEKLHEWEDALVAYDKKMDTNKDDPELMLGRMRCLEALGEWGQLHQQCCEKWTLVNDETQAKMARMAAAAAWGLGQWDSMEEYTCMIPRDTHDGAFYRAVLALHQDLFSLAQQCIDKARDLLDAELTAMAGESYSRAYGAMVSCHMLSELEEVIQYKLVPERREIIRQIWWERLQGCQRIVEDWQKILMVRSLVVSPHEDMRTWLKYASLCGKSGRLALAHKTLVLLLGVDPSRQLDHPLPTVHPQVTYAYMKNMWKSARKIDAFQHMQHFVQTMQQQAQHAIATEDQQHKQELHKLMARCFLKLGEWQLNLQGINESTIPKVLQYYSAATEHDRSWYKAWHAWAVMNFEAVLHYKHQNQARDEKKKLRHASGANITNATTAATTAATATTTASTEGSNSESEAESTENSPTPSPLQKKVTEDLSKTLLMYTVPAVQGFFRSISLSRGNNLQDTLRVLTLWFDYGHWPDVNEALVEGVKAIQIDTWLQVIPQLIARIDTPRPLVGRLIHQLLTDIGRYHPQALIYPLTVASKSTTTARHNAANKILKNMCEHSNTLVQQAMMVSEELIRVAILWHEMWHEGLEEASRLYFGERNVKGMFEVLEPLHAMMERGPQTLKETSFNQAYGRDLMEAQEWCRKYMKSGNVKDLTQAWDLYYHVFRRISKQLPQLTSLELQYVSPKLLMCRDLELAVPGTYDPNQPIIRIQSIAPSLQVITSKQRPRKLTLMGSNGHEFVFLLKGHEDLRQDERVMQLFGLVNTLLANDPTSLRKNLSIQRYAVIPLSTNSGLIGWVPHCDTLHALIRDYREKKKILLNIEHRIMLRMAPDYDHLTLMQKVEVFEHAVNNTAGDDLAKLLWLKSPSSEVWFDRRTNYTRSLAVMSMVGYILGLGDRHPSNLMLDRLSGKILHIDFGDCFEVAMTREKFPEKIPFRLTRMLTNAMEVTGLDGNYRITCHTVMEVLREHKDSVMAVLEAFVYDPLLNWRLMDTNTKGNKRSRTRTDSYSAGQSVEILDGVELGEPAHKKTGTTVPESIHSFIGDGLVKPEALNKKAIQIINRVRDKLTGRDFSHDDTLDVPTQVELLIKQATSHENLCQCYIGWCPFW
T1 sequence (P42338 with tags, fused parts or gaps limits assumed): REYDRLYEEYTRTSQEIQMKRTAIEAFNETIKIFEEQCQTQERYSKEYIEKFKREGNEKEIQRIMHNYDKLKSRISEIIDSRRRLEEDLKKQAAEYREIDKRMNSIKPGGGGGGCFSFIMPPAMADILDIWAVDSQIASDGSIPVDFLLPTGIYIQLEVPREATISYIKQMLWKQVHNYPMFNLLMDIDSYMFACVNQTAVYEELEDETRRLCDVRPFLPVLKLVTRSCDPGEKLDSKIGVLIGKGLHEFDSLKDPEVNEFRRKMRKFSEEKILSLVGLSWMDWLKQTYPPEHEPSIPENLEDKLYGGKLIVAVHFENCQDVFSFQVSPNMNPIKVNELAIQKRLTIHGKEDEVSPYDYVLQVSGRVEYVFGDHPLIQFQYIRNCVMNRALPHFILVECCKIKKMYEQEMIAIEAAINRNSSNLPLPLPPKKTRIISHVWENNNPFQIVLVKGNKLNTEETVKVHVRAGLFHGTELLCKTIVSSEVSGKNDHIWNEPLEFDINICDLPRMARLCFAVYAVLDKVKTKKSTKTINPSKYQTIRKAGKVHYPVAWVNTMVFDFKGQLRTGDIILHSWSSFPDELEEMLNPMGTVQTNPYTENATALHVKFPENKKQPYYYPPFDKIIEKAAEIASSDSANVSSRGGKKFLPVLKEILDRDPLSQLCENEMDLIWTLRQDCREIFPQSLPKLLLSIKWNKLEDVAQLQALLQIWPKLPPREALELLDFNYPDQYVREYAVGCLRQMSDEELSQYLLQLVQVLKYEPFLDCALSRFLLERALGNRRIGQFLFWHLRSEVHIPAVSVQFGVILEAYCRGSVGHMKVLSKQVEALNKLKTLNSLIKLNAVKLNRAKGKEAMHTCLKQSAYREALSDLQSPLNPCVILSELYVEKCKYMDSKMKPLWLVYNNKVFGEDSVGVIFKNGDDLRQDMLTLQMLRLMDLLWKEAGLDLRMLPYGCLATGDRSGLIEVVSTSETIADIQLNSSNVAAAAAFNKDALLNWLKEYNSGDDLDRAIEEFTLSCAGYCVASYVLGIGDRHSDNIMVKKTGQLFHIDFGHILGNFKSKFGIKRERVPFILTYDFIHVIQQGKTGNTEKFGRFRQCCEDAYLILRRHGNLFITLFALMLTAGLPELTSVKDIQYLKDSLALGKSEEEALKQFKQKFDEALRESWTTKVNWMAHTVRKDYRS

HT-Perm logPe pH6.8 [1] | IC50 (PI3K beta; read-out: EPK_PI3Kbeta/IC50) [µM] | IC50 (mTOR; read-out: EPK_mTOR/IC50) [µM] | HT-perm/logPe pH6.8 [1] | IC50 (PI3K beta; read-out: PI3Kbeta/IC50) [µM] | IC50 (mTOR; read-out: mTOR/IC50) [µM] | SMILES
−3.9 | 0.541 | 0.007 |  |  |  | CNc1ncc(-c2ccc3ncc4c(c3c2)n(-c2ccc(N(C)CCOC)nc2C)c(=O)n4C)cn1 [Example 15.2, 1-{6-[(2-Methoxy-ethyl)-methyl-amino]-2-methyl-pyridin-3-yl}-3-methyl-8-(2-methylamino-pyrimidin-5-yl)-1,3-dihydro-imidazo[4,5-c]quinolin-2-one]
−3.7 | 0.047 | 0.11 |  |  |  | Cc1cc(F)ncc1-n1c(=O)n(C)c2cnc3ccc(-c4cnc(N)c(C(F)(F)F)c4)cc3c21 [Example 16.1, 8-(6-Amino-5-trifluoromethyl-pyridin-3-yl)-1-(6-fluoro-4-methyl-pyridin-3-yl)-3-methyl-1,3-dihydro-imidazo[4,5-c]quinolin-2-one]
 |  |  | −3.8 | 0.023 | 0.009 | COc1ncccc1-n1c(=O)n(C)c2cnc3ccc(-c4cnc(N)c(C(F)(F)F)c4)cc3c21 [Example 1.3, 8-(6-Amino-5-trifluoromethyl-pyridin-3-yl)-1-(2-methoxy-pyridin-3-yl)-3-methyl-1,3-dihydro-imidazo[4,5-c]quinolin-2-one]
−4 | 0.049 | 0.007 |  |  |  | CCNc1cc(-c2ccc3ncc4c(c3c2)n(-c2ccc(N(C)CC)nc2C)c(=O)n4C)cnc1C [Example 12.2, 8-(5-Ethylamino-6-methyl-pyridin-3-yl)-1-[6-(ethyl-methyl-amino)-2-methyl-pyridin-3-yl]-3-methyl-1,3-dihydro-imidazo[4,5-c]quinolin-2-one]
−4 | 0.194 | 0.426 |  |  |  | CCOCc1cc(-c2ccc3ncc4c(c3c2)n(-c2ccc(F)nc2C)c(=O)n4C)cnc1N [Example 7.15, 8-(6-Amino-5-ethoxymethyl-pyridin-3-yl)-1-(6-fluoro-2-methyl-pyridin-3-yl)-3-methyl-1,3-dihydro-imidazo[4,5-c]quinolin-2-one]
−4.4 | 1.18 | 0.151 |  |  |  | CNc1ncc(-c2ccc3ncc4c(c3c2)n(-c2cnc(F)cc2C)c(=O)n4C)cn1 [Example 16.3, 1-(6-Fluoro-4-methyl-pyridin-3-yl)-3-methyl-8-(2-methylamino-pyrimidin-5-yl)-1,3-dihydro-imidazo[4,5-c]quinolin-2-one]
−5.2 | 0.3 | 0.009 |  |  |  | Cc1nc(N(C)C)ccc1-n1c(=O)n(C)c2cnc3ccc(-c4cncc(N)c4)cc3c21 [Example 19.5, 8-(5-Amino-pyridin-3-yl)-1-(6-dimethylamino-2-methyl-pyridin-3-yl)-3-methyl-1,3-dihydro-imidazo[4,5-c]quinolin-2-one]
−5.2 | 0.069 | < 0.003 |  |  |  | CCNc1cc(-c2ccc3ncc4c(c3c2)n(-c2ccc(F)nc2C)c(=O)n4C)cnc1CO [Example 7.9, 8-(5-Ethylamino-6-hydroxymethyl-pyridin-3-yl)-1-(6-fluoro-2-methyl-pyridin-3-yl)-3-methyl-1,3-dihydro-imidazo[4,5-c]quinolin-2-one]
−4 | 0.212 | 0.017 |  |  |  | COCc1ncc(-c2ccc3ncc4c(c3c2)n(-c2ccc(OC)nc2OC)c(=O)n4C)cc1OC [Example 8.12, 1-(2,6-Dimethoxy-pyridin-3-yl)-8-(5-methoxy-6-methoxymethyl-pyridin-3-yl)-3-methyl-1,3-dihydro-imidazo[4,5-c]quinolin-2-one]
−6.1 | 0.038 | 0.007 |  |  |  | COCC(=O)Nc1ccc(-n2c(=O)n(C)c3cnc4ccc(-c5cncc(N)c5)cc4c32)c(C)n1 [Example 20.1, N-{5-[8-(5-Amino-pyridin-3-yl)-3-methyl-2-oxo-2,3-dihydro-imidazo[4,5-c]quinolin-1-yl]-6-methyl-pyridin-2-yl}-2-methoxy-acetamide]
−5.4 | 0.041 | 0.011 |  |  |  | CNc1cc(-c2ccc3ncc4c(c3c2)n(-c2ccc(F)nc2C)c(=O)n4C)cnc1CO [Example 7.11, 1-(6-Fluoro-2-methyl-pyridin-3-yl)-8-(6-hydroxymethyl-5-methylamino-pyridin-3-yl)-3-methyl-1,3-dihydro-imidazo[4,5-c]quinolin-2-one]
−3.8 | 0.396 | 0.048 |  |  |  | Cc1ccc(-n2c(=O)n(C)c3cnc4ccc(-c5cnc(N(C)C)nc5)cc4c32)c(C)n1 [Example 14.3, 8-(2-Dimethylamino-pyrimidin-5-yl)-1-(2,6-dimethyl-pyridin-3-yl)-3-methyl-1,3-dihydro-imidazo[4,5-c]quinolin-2-one]
 |  |  | −3.6 | 0.505 | 0.107 | CCOc1ccc(-c2ccc3ncc4c(c3c2)n(-c2cccnc2OC)c(=O)n4C)cn1 [Example 1.5, 8-(6-Ethoxy-pyridin-3-yl)-1-(2-methoxy-pyridin-3-yl)-3-methyl-1,3-dihydro-imidazo[4,5-c]quinolin-2-one]
−4.1 | 0.068 | 0.009 |  |  |  | CNc1cc(-c2ccc3ncc4c(c3c2)n(-c2ccc(N(C)C)nc2C)c(=O)n4C)cnc1C [Example 19.2, 1-(6-Dimethylamino-2-methyl-pyridin-3-yl)-3-methyl-8-(6-methyl-5-methylamino-pyridin-3-yl)-1,3-dihydro-imidazo[4,5-c]quinolin-2-one]
−6.1 | 0.142 | 0.009 |  |  |  | COc1nc(N2CCNCC2)ccc1-n1c(=O)n(C)c2cnc3ccc(-c4cnc(N(C)C)nc4)cc3c21 [Example 9.4, 8-(2-Dimethylamino-pyrimidin-5-yl)-1-(2-methoxy-6-piperazin-1-yl-pyridin-3-yl)-3-methyl-1,3-dihydro-imidazo[4,5-c]quinolin-2-one]
−3.7 | 0.201 | 0.08 |  |  |  | CCOc1cc(-c2ccc3ncc4c(c3c2)n(-c2cccnc2C)c(=O)n4C)cnc1C [Example 2.22, 8-(5-Ethoxy-6-methyl-pyridin-3-yl)-3-methyl-1-(2-methyl-pyridin-3-yl)-1,3-dihydro-imidazo[4,5-c]quinolin-2-one]
−5 | 0.019 | 0.048 |  |  |  | Cc1nc(N2CC(F)(F)C2)ccc1-n1c(=O)n(C)c2cnc3ccc(-c4cncc(C(C)(C)O)c4)cc3c21 [Example 24.2, 1-[6-(3,3-Difluoro-azetidin-1-yl)-2-methyl-pyridin-3-yl]-8-[5-(1-hydroxy-1-methyl-ethyl)-pyridin-3-yl]-3-methyl-1,3-dihydro-imidazo[4,5-c]quinolin-2-one]
 |  |  | −3.7 | 0.263 | 0.115 | COc1ccc(-c2ccc3ncc4c(c3c2)n(-c2cccnc2)c(=O)n4C)cn1 [Example 5.4, 8-(6-Methoxy-pyridin-3-yl)-3-methyl-1-pyridin-3-yl-1,3-dihydro-imidazo[4,5-c]quinolin-2-one]
−4 | 1.95 | 0.049 |  |  |  | CCOc1ccc(-c2ccc3ncc4c(c3c2)n(-c2ccc(OCCOC)nc2C)c(=O)n4C)cn1 [Example 13.1, 8-(6-Ethoxy-pyridin-3-yl)-1-[6-(2-methoxy-ethoxy)-2-methyl-pyridin-3-yl]-3-methyl-1,3-dihydro-imidazo[4,5-c]quinolin-2-one]
−3.9 | 1.34 | 0.47 |  |  |  | COc1ccc(-n2c(=O)n(C)c3cnc4ccc(-c5ccc6nccn6c5)cc4c32)c(OC)n1 [Example 8.10, 1-(2,6-Dimethoxy-pyridin-3-yl)-8-imidazo[1,2-a]pyridin-6-yl-3-methyl-1,3-dihydro-imidazo[4,5-c]quinolin-2-one]
−6 | 0.236 | 0.11 |  |  |  | Cc1nc(F)ccc1-n1c(=O)n(C)c2cnc3ccc(-c4cncc(N)c4)cc3c21 [Example 7.16, 8-(5-Amino-pyridin-3-yl)-1-(6-fluoro-2-methyl-pyridin-3-yl)-3-methyl-1,3-dihydro-imidazo[4,5-c]quinolin-2-one]
−3.5 | 0.045 | 0.215 |  |  |  | COc1ccc(-n2c(=O)n(C)c3cnc4ccc(-c5cnc(N(C)C)nc5)cc4c32)c(Cl)n1 [Example 18.3, 1-(2-Chloro-6-methoxy-pyridin-3-yl)-8-(2-dimethylamino-pyrimidin-5-yl)-3-methyl-1,3-dihydro-imidazo[4,5-c]quinolin-2-one]
 |  |  | −3.7 | 0.58 | 0.042 | CCOc1ccc(-c2ccc3ncc4c(c3c2)n(-c2cccnc2C)c(=O)n4C)cn1 [Example 2.1, 8-(6-Ethoxy-pyridin-3-yl)-3-methyl-1-(2-methyl-pyridin-3-yl)-1,3-dihydro-imidazo[4,5-c]quinolin-2-one]
−4.1 | 0.062 | 0.006 |  |  |  | CCNc1cc(-c2ccc3ncc4c(c3c2)n(-c2ccc(OCCOC)nc2C)c(=O)n4C)cnc1C [Example 13.4, 8-(5-Ethylamino-6-methyl-pyridin-3-yl)-1-[6-(2-methoxy-ethoxy)-2-methyl-pyridin-3-yl]-3-methyl-1,3-dihydro-imidazo[4,5-c]quinolin-2-one]
